In patent US12714682B2, “Calixarene compounds and uses thereof” (UNIVERSITÄT WIEN, priority 2019, dated 2026):

Key:
C57BL/6J mice = test: LPS-induced acute lung inflammation model: lung histopathology; assay type: in vivo; conditions: SCA-744 60 mg/kg i.p.
Experimental: Acute lung inflammation was induced by intratracheal administration of 100 μg LPS (Escherichia coli O111:B4; Sigma Aldrich, St. Louis, MO, USA) dissolved in 60 μl sterile phosphate buffered saline (PBS) under ketamine (120 mg/kg ip.; Calypsol, Gedeon Richter Plc., Budapest, Hungary) and xylazine (6 mg/kg ip.; Sedaxylan, Eurovet Animal Health B.V., Bladel, Netherlands) anaesthesia. 24 h after administration, respiratory function parameters were assessed, and lung samples were harvested for histopathological evaluation.
SCA-744 (60 mg/kg) and its vehicle were injected intraperitoneally (i.p.), 24 h, 12 h, 20 min before and 12 h after intratracheal administration of LPS. […] 24 h and 20 min before LPS treatment. Respiratory function measurement was performed 24 h after LPS administration
Excised lung tissue samples were formalin-fixed (6%) and embedded in paraffin, 5 μm sections cut and stained with haematoxylin-eosin for histological analysis. Assessment of airway inflammation was performed in a blind manner in order to evaluate perivascular/peribronchial edema, neutrophil, macrophage and lymphocyte inflammatory cell infiltration as well as goblet cell metaplasia on a semiquantitative scale ranging from 0 to 3 in 2 fields of vision from three depths of lung tissue from each animal.

[1] = system: THP-1 human monocytic cell line; test: LPS-stimulated THP-1 macrophage cytokine production (LEGENDplex); assay type: cell-based
Experimental: A specific anti-inflammatory effect or activity of a compound is proven, if the compound can decrease the production of one of IL-1B, IL-6 and TNFα in human THP1 macrophages following LPS stimulation, as determined by a standard assay: THP-1 human monocytic cell lines are treated with 100 nM of Phorbol 12-myristate 13-acetate (PMA) for 48 h to induce mature macrophage-like state. Cells are then stimulated with 100 ng/ml of LPS in the absence and presence of 500 μM of compound. After 6 hours, supernatants of treated and untreated cells are collected, and cytokine levels determined using the Human Inflammatory panel LEGENDplex Human Pro-inflammatory Chemokine Panel (Cat. No. 740118). A positive result is considered if the compound is capable of reduce or block the production of IL-1β, IL-6, and TNFα in human THP1 macrophages after LPS stimulation.
Following cells were treated with [10 ng/ml] LPS in the absence and presence 10, 100 and 500 μM of SCA-744. Cytokine levels were determined by LEGENDplex™ Human Inflammation Panel assay from BioLegend. The bar heights represent the concentration means compared to LPS alone of 3 independent experiments carried out in triplicates.
Cells were treated with 100 nM of Phorbol 12-myristate 13-acetate (PMA) for 48 h to induce mature macrophage-like state. Cells were then stimulated with 100 ng/ml of Lipopolysaccharides (LPS) in the absence and presence of 500 μM of SCA-744. After 6 hours, supernatants of treated and untreated cells were collected and the levels of three major pro-inflammatory cytokines TNF-α, IL-6 and IL-1ß were determined using the Human Inflammatory panel of LEGENDPLEX Multi-Analyte Flow assay.

[2] = system: Human neuroblastoma SH-SY5Y cells; test: Untargeted metabolic profiling of SH-SY5Y cells; assay type: cell-based; conditions: 500 μM, 24 h
Experimental: Human neuroblastoma SH-SY5Y cells were differentiated and treated with 500 μM SCA-744 for 24 h. Cell pellets were extracted using a MeOH:ACN:H2O (2:2:1, v/v) solvent mixture. Untargeted metabolic profiling was performed at the VBCF Metabolomic Unit (www.vbcf.ac.at) employing high-resolution mass spectrometry.
The untarged metabolomic data was analyzed with the Compound Discover Software (version 3.1). The first set of metabolites were analyzed through the internal database of the Vienna Biocenter Core facility. The measured retention time of a compound was compared to the retention time of a standard previously measured. In the case there was a MS2 spectrum available, this was also taken into consideration for identification. The second set of metabolites was annotated with mzCloud (match at least 75%). Identification was based on mzCloud database comparison of measured molecular weight (5 ppm tolerance) and MS2 spectra. The third set of metabolites were annotated via ChemSpider identification (CSID) through molecular weight matching (max. mass tolerance 5 ppm). P-values were calculated by the Compound Discover Software from biological and technical (T1-T2, MS) replicates. For further annotations KEGG, HMDB, BioCyc, Metabolika and PubChem databases were used.
The metabolites with a false discovery rate (FDR)<0.05 along with p-values and corresponding fold-change were extracted and subjected to chemical and metabolic network enrichment analysis. Enrichment analysis based on chemical similarity was conducted using ChemRich that is independent of biochemical pathway assignments, but rather utilizes Tanimoto substructure similarity coefficients and medical subject headings ontology to generate non-overlapping clusters of metabolites into distinct chemical classes. Statistical testing was determined by Kolmogorv-Smirnov testing and an FDR adjusted P value of <0.05 was considered significant.
Comparison of relative metabolite abundance between control and -treated cells was determined by unpaired univariate analysis. Calculated P values were adjusted based on an FDR of 0.05 and filtered by log Fold-Change (log FC) analysis (Table 3). For illustrative purposes the metabolites are annotated on the resulting volcano plot with log FC>1 log FC<−2. A total of 261 annotated metabolites were found with an FDR<0.05.

[3] = system: SH-SY5Y (neuroblastoma cell line); test: RNAseq global gene expression in differentiated SH-SY5Y cells; assay type: cell-based, human
Experimental: To determine the cellular response to SCA-744 (Cat. No. 55523-250 MG Sigma-Aldrich), the global changes in gene expression upon treatment of human in vitro cultured cells, SH-SY5Y (neuroblastoma cell line: SH-SY5Y-ATCC-CRL-2266) were analysed by RNAseq analysis. SH-SY5Y were cells differentiated with retinoic acid and Phorbol-12-Myristate-13-Acetate (Presgraves et al. Experimental Neurology 2004, 190(1), pp. 157-170). Cell cultures were treated for 24 hours with 500 μM of SCA-744 or vehicle (DPBS). Total RNA was isolated to prepare libraries using the Lexogen SENSE mRNA kit and sequenced using a HiSeq2500 (Illumina) running in 50 bp single-read modes using sequencing chemistry v4. Differentially expressed genes (DEGs) were identified by applying the statistical tests of DESeq (Anders & Huber, Genome biology 2010, 11(10), p. R106), and edgeR (Robinson et al. Bioinformatics 2009, 26(1), pp. 139-140.) packages. The comparison was made with Homo sapiens identifiers.

[4] = 500 μM, 24 hours, differentiated SH-SY5Y

## O=S(=O)(O)c1cc2c(O)c(c1)Cc1cc(S(=O)(=O)O)cc(c1O)Cc1cc(S(=O)(=O)O)cc(c1O)Cc1cc(S(=O)(=O)O)cc(c1O)C2 [SCA-744, 4-sulfocalix[4]arene]
C57BL/6J mice
  pathological changes in perivascular oedema and perivascular/peribronchial infiltration by neutrophils and macrophages: prevented or greatly reduced the pathological changes
C57BL/6J mice; dexamethasone 5 mg/kg ip.
  semiquantitative pathology scores (oedema, granulocytes, macrophages, composite; scale 0 to 3): not statistically significantly different from untreated controls
[1]; 10 ng/ml LPS, 10, 100 and 500 μM, FIG. 2
  inhibition of LPS-induced TNF-α, IL-ß and IL-6: Dose-dependent inhibition
[1]; 500 μM, 100 ng/ml LPS, 6 hours, PMA-differentiated THP-1
  pro-inflammatory cytokine levels (TNF-α, IL-6, IL-1ß) in culture supernatant: significantly decreased
[2]
  Glycolysis and NADH, as well as ATP: significant down-regulated
  Hypoxanthine and Inosine abundance: highly significant up-regulated
  Lysophosphatidyl (LPI) abundance: most up-regulated metabolite
  Thymine and adenine nucleotides, dipeptides and amino acids: down-regulated
  pharmacological response in metabolic analysis: altered lipid metabolism, down-regulated glycolysis and reduction of NADH, ATP
[3]
  genes for LDLR, INSIG1 and DHCR24/Seladin-1: found to be modulated
[3]; [4]
  genes involved in inflammation, anti-oxidative, anti-ageing response and lipid metabolism (RNAseq): differentially regulated
  mRNA expression of anti-oxidative genes CHAC1, NQO1, SLC7A11 (RNASeq): significant up-regulation
  mRNA expression of key genes involved in pro-inflammatory response: down regulates key genes involved in pro-inflammatory response
